Results published in US6355864B1, “Versatile rpL34 promoter elements and use thereof” (Battelle Memorial Institute, priority 1999, dated 2002).

What was measured:
[1] = tested on: rpL34 promoter; experiment: Response of rpL34 promoter constructs to wounding and plant hormones in leaf discs of transgenic tobacco; type: in vivo, Nicotiana tabacum; details: leaf discs of plants with −1500, m178 or Δ147; 1 μM 2,4-D or 5 μM BA in MS medium, 24 hr; versus wounding alone
Experimental: Fresh young leaves of independent transgenic tobacco were ground in lysis buffer (50 mM sodium phosphate, pH 7.0. 10 mM EDTA, 0.1% TritonX-100, 0.1% sarkosyl and 10 mM DTT). Tobacco protoplast protein was extracted in the same buffer by sonication on ice twice, 5 seconds each time. […] Approximately 5-10 μg of protein was incubated in the presence of 1 mM 4-methylumbelliferyl β-D-glucuronide in 100 μl of lysis buffer at 37 C. Samples from each reaction were taken at 0, 15, and 30 min intervals and the enzyme reaction was quenched in 0.2 M sodium carbonate (Na2CO3). The flurometer was calibrated with 100, 200, 300, and 400 nM 4-methylumbelliferon in 0.2M sodium carbonate.
Kanamycin resistant T1 seedlings, each containing a unique internally deleted rpL34 promoter, were selected and grown to maturity. Six leaf discs excised from the fourth leaf of each plant by paper punch were randomly pooled and incubated in MS medium with 5 μM BA, 1 μM 2,4-D or no plant hormone (wounding treatment) for 24 hr at room temperature. […] The leaf discs ground immediately after excision in protein extraction buffer served as non-wounded tobacco controls.

[2] = tested on: rpL34 promoter; details: previous promoter analyses (Dai et al. 1996); on top of mechanical wounding; cited from earlier work

Compound	induced GUS activity [1]	rpL34 promoter activity [2]
O=C(O)COc1ccc(Cl)cc1Cl [2,4-D, 2,4-dichlorophenoxyacetic acid]	induced higher GUS activity than wounding alone	further enhanced
c1ccc(CNc2ncnc3nc[nH]c23)cc1 [BA, benzyladenine]	induced higher GUS activity than wounding alone	further enhanced
